Experiments:
pentosidine formation = assay: AGEs (pentosidine) formation inhibiting effect in plasma from dialysis patients; assay type: biochemical, human
Description: Before dialysis, blood samples were obtained from non-diabetic volunteer dialysis patients with renal failure, and fresh heparinized plasma samples were prepared therefrom Pooled plasma obtained from several patients (n=3˜5) was served to the test. 4-(5-phenyltetrazol-1-ylmethyl)-morpholine (Compound 1), 5-methyl-1-(5-phenyltetrazol-1-ylmethyl)-3a,6a-dihydro-1H-pyrrolo[3,4-d][1,2,3]triazole-4,6-dione (Compound 2) or (5-phenyltetrazol-1-yl)methanol (Compound 3) adjusted to a designed concentration ([…]), in DMSO solution (100 μl), was added to the pooled plasma (900 μl) and incubated at 37° C. for 7 days in the presence of air. Then, the amount of pentosidine was measured to estimate the suppressive effect on the glycation of protein.
Measurement of the amount of pentosidine was made as follows: to each incubated sample (50 μL) was added an equal volume of 10% trichloroacetic acid, followed by centrifugation at 5000 g for 5 minutes; after removal of the supernatant, the pellet was washed by 5% trichloroacetic acid (300 μL); the pellet was dried under reduced pressure and then subjected to hydrolysis in 6N HCI solution (100 μL) at 110° C. under nitrogen atmosphere for 16 hours; to the hydrolysate, 5N NaOH (100 μL) and 0.5 M phosphate buffer (pH 7.4) (200 μL) were added, followed by filtration through a porefilter with a pore size of 0.5 μm and dilution with PBS. The concentration of free pentosidine was determined by reversed-phase HPLC using a fluorescence detector (RF-10A, Shimazu Seisakusho) (Miyata, T. et al.: Proc. Natl. Acad. Sci. USA, 93, 2353-2358, 1996). The effluent was monitored at 335/385 nm of excitation/emission wavelength. Synthetic pentosidine was used as the standard. The detection limit of pentosidine was 0.1 pmol/mg protein.
The inhibiting effect was estimated by comparing with positive control (aminoguanidine and pyridoxamine (Sigma)) reacted in the same manner as 4-(5-phenyltetrazol-1-yl-methyl)-morpholine (Compound 1), 5-methyl-1-(5-phenyltetrazol-1-ylmethyl)-3a,6a-dihydro-1H-pyrrolo[3,4-d][1,2,3]triazole-4,6-dione (Compound 2) and (5-phenyltetrazol-1-yl)methanol (Compound 3).

[1] = Suppressive effect on the hydroxylation of phenylalanine with hydroxy radical; assay type: biochemical; conditions: in comparison with pyridoxamine as positive control; 0.1, 0.5, 2.5 mM
Description: Phenylalanine (final concentration: 1 mM), test compound (final concentration: 0.1, 0.5, 2.5 mM), hydrogen peroxide (final concentration: 5 mM) and cupric sulfate (final concentration: 0.1 mM) were dissolved in 200 mM of phosphate buffer (pH7.4) (total volume 500 μL), followed by incubation at 37° C. for 4 hours. Then, DTPA (final concent-ration: 1 mM) and 260 unit of catalase were added thereto to interrupt the reaction. The amounts of o-tyrosine and m-tyrosine formed were determined by HPLC in the following manner: after a designed period of time, the reaction mixture was diluted to 100 folds; 20 μL of the dilution was injected onto HPLC, separation was made with C18 column (4.6×250 mm, 5 μm; Nomura Kagaku) and detection was effected using a fluorescence detector (RF-10A: Shimazu Seisakusho) under the condition of an excitation wavelength of 275 nm and a fluorescence wavelength of 305 nm. In the mobile phase, the flow rate was 0.6mL/min and the concentration of buffer B was varied from 6.5% to 10% in 25 minutes (buffer A: 0.10% trifluoroacetic acid; buffer B: 80% acetonitrile containing 0.08% trifluoroacetic acid).

[2] = Absorbability examination, oral administration to rat; assay type: in vivo; conditions: 50 mg/kg oral
Description: For 4-(5-phenyltetrazol-1-yl methyl)-morpholine (compound 1) and (5-phenyltetrazol-1-yl)methanol (compound 3), their sorbability were examined. Each compounds are suspended in carboxymethyl cellulose in given concentration to prepare sample for oral administration. Then each samples were administered in the ratio of 50 mg/kg to rat using sonde. Five Wister rats (male, 8 weeks aged, closed colony) were used every one group. At one hour, 2 hours, 6 hours and 24 hours after the administration of compound, blood was obtained. The obtained blood samples were immediately cetrifuged at 3000 rpm for 15 minutes to obtain the blood plasma and the concentration of the compound in the specimen was quantitated by HPLC. Briefly, to 100 μL of obtained blood plasma was added to 200 μL of acetonitrile, centrifuged at 12000 rpm for 10 minutes to obtain supernatant, deproteinized and served to HPLC. The measuring condition of HPLC was selected from suitable condition for each compounds to separate and quantify. For example, in case of 4-(5-phenyltetrazol-1-yl methyl)-morpholine (compound 1), separated with reverse-phase C18 column (4.6×250 mm, 5 μm: Waters), and then detected using ultraviolet detector (RF-10A: Shimazu Seisakusho) at 240 nm of wavelength to quantify. In mobile phase, the flow rate is 0.8 mL/min and solvent is water: acetonitrile.

[3] = Acute toxicity examination, single oral administration to mouse; conditions: male, in vivo, ICR mice, single oral administration
Description: (§1) For 4-(5-phenyltetrazol-1-ylmethyl)-morpholine (compound 1) and (5-phenyltetrazol-1-yl) methanol (compound 3), acute toxicity test was carried out using mice. Each compounds were suspended in carboxymethyl cellulose in given concentration to prepare sample for oral administration. Then single oral administration was done to mouse. The dose is 100, 250, 500, 1000 and 2000 mg/kg. Five ICR mice (male , 8 weeks aged, closed colony) were used in each group. The test material was administrated to determine LD50 value.

ICR mice = assay: as above; conditions: in vivo, po
Description: as §1

[4] = system: ischemia-reperfusion acute renal failure model; assay: Renal protective effect on ischemia-reperfusion acute renal failure model rat; assay type: in vivo; conditions: 1 mg/kg once a day, 2 days
Description: This condition model is typical acute renal failure model. To prepare the model, operated on wistar rat (male, body weight 150 g, 6 weeks aged) to remove right kidney, and on the following day, renal artery of remaining left kidney was applied a ligature with clip under general anesthesia. […] After preparing the ischemia-reperfusion model, test compound (4-(5-phenyltetrazol-1-yl methyl)-morpholine (compound 1), 1 mg/kg body weight, once a day) was suspended in 0.5% carboxymethylcellulose. The suspension was coercively administered 2 days continuously, on third day kidney was obtained, and analysed pathologically (renal tubular stromal disorder score). In particular, the kidney was stained by PAS according to conventional method and the renal tubular stromal disorder was estimated for the presence or absence of renal tubular necrosis, renal tubular hypertrophy, renal tubular atrophia, renal tubular basal lamina thickening and cast in the sustained image of kidney. As well as biochemical analysis of blood was carried out (contract clinical analysis organization: SRL).

[5] = system: middle cerebral artery ischemia-reperfusion model; assay: Cerebroprotective action in middle cerebral artery ischemia-reperfusion model; assay type: in vivo, rat; conditions: after reperfusion 22 hrs

Compound: c1ccc(-c2nnnn2CN2CCOCC2)cc1 [Compound 1, 4-(5-phenyltetrazol-1-ylmethyl)-morpholine]
- Pentosidine formation (pentosidine formation; 5 mM, plasma from dialysis patients, 37° C., 7 days, DMSO negative control 2.960): 0.367 nmol/mL
- pentosidine formation suppression (pentosidine formation; plasma from the patients with dialysis): suppressed remarkably
- hydroxylation of phenylalanine with hydroxy radical, suppression [1]: suppressed remarkably
- sorbability (plasma concentration after oral administration) [2]: good sorbability
- LD50 [3]: > 1000 mg/kg
- toxicity (ICR mice): lower toxicity
- BUN [4]: BUN reducing effect
- Nervous condition estimation test, Ave (Bederson grade) [5]: 1.8

Reference: patent US20070161691A1, “Modified-protein formation inhibitor” (TOKAI UNIVERSITY, priority 2003, published 2007)
